Legend:
CD-1 mice = assay: Subchronic and reproductive toxicity tests
Method: Immature CD-1 mice (20 days old) were obtained from Experimental Animal Tech Co. of Weitonglihua (Beijing, China) and acclimatized in an experimental environment with a temperature of 22 °C±2 °C, relative humidity between 40 and 60%, and artificial lighting in a 12 h/12 h light-dark cycle. The animals were fed ad libitum with a basic diet from the Laboratory Animal Center of the Academy of Military Medical Sciences (Beijing, China), and drinking water was provided ad libitum. […] The animals were housed five to a cage until the pairing date. The treatment via oral gavage of each mouse was performed once every 3 days beginning on PND 24. The chemicals were dissolved in peanut oil to the appropriate concentrations. The volume of vehicle or chemical solutions administered was adjusted daily based on body weight measured during the dosing period according to the volume-body weight ratio of 5 ml kg^−1 bw. On PND 60, 10 females of each group were weighed and killed by cervical dislocation. The uteri, ovaries, livers, kidneys and spleens were weighed and collected for histological analysis. At the age of PND 77, males and females were paired. Each morning, the females were examined for the presence of vaginal plugs. Gestational day 1 was defined as the day on which a vaginal plug was found. In cases where pairing was unsuccessful, females were re-mated with proven males of the same group, except that females in the 1.2 mg kg^−1 TAM group were re-mated with proven males of the control group. After a 7-day mating period, the males were weighed and killed, and organs were weighed and collected for further analysis. Cauda epididymal sperm was collected from each mouse and observed under a trinocular microscope (Olympus BX53) in physiological saline. A microscopic video was recorded and analysed for sperm quality evaluation. The treatment via oral gavage was continued for the females until day 19 of pregnancy. On post-partum days 0 and 4, the weights of the dams and pups were recorded and the pups were checked for abnormalities. On post-partum day 4, the dams were weighed and killed, and their organs were weighed and collected for further analysis. The ovaries and uteri were examined for the numbers of corpora lutea and implantation sites, respectively. Finally, the non-pregnant and nulliparous females were killed for histopathological analysis. For histological examination, organs and tissues were fixed in formalin fixation, embedded in paraffin, and sectioned serially at 5 μm. Slides were stained with hematoxylin and eosin (H&E), and observed under a light microscope (Olympus BX53).

sprr2a and sprr2b = assay: Q-RT-PCR of sprr2a and sprr2b in uteri after 10-day dosing; assay type: in vivo, mice; details: 10 days; P<0.05
Method: The uteri, ovaries and livers were collected for total RNA isolation. Total RNA was isolated using Trizol reagent (Invitrogen) and further purified by NucleoSpin RNA Clean-up (Macherey-Nagel, Germany). Fluorescence labelling of the RNA samples was performed with a Jingxin cRNA linear amplification and labelling kit (CapitalBio) according to the manufacturer's instructions. The total RNA from each pool of tissue samples (a mixture from three animals) was used for microarray analysis. Cy3 dCTP was used to label the samples. The labelled products were added to SurePrint G3 mouse gene expression 8 × 60 K microarrays (Agilent) and incubated overnight at 42 °C. Following hybridization, the gene arrays were washed and scanned using an Agilent G2565CA Microarray Scanner. Glyceraldehyde 3-phosphate dehydrogenase (GAPDH) was used as an endogenous control to monitor the quality of the target preparation. The data were processed with feature extraction software (GeneSpring GX v.11; Agilent). The raw signals were log-transformed and normalized with the percentile shift normalization method. All arrays met the minimum Agilent QA/QC standards. To verify the data from the gene array, 14 genes were chosen as candidates for Q-RT-PCR. Primers are listed in Supplementary Table 4. GAPDH was used as an endogenous control. […] The relative expression was quantified using the 2^(−ΔΔCt) method. […]

**Q.** How did the “Absorption sites in the uterus of dams” value (CD-1 mice; 0.4 mg kg^−1 3-d^−1 BHPF) turn out when `Oc1ccc(C2(c3ccc(O)cc3)c3ccccc3-c3ccccc32)cc1` [BHPF, 9,9-bis(4-hydroxyphenyl)-fluorene] was run?
**A.** The value was 0.14±0.36.

**Q.** And the “Birth weight of pups” value (CD-1 mice; 0.4 mg kg^−1 3-d^−1 BHPF)?
**A.** Its value is 1.66±0.21.

**Q.** What about the “Body weight of female pups at PND 4” value (CD-1 mice; 0.4 mg kg^−1 3-d^−1 BHPF) of the same molecule?
**A.** The value was 3.08±0.57.

**Q.** What about the “Body weight of male pups at PND 4” value (CD-1 mice; 0.4 mg kg^−1 3-d^−1 BHPF) of the same molecule?
**A.** The value was 3.30±0.56.

**Q.** What about the “Implantation sites in the uterus of dams” value (CD-1 mice; 0.4 mg kg^−1 3-d^−1 BHPF) of the same molecule?
**A.** Its value is 15.21±2.02.

**Q.** What about the Number of dams (CD-1 mice; 0.4 mg kg^−1 3-d^−1 BHPF) of the same molecule?
**A.** The Number of dams was 14.

**Q.** What about the “Number of live pups per litter” value (CD-1 mice; 0.4 mg kg^−1 3-d^−1 BHPF) of the same molecule?
**A.** The value was 12.71±2.55.

**Q.** What about the “weight gain of males from PND 30” value (CD-1 mice; 0.4 mg kg^−1 3-d^−1 BHPF) of the same molecule?
**A.** Its value is “higher weight gain than the control”.

**Q.** And the non-pregnant females (CD-1 mice; 0.4 mg kg^−1 bw 3-d^−1 BHPF)?
**A.** The non-pregnant females was 1.

**Q.** And the “Absorption sites in the uterus of dams” value (CD-1 mice; 2 mg kg^−1 3-d^−1 BHPF)?
**A.** The value was 0.33±0.65.

**Q.** What about the “Birth weight of pups” value (CD-1 mice; 2 mg kg^−1 3-d^−1 BHPF) of the same molecule?
**A.** The value was 1.59±0.24.

**Q.** And the “Body weight of female pups at PND 4” value (CD-1 mice; 2 mg kg^−1 3-d^−1 BHPF)?
**A.** The value was 3.04±0.62.

**Q.** What about the “Body weight of male pups at PND 4” value (CD-1 mice; 2 mg kg^−1 3-d^−1 BHPF) of the same molecule?
**A.** Its value is 3.18±0.59.

**Q.** What about the “Implantation sites in the uterus of dams” value (CD-1 mice; 2 mg kg^−1 3-d^−1 BHPF) of the same molecule?
**A.** Its value is 15.42±2.02.

**Q.** And the Number of dams (CD-1 mice; 2 mg kg^−1 3-d^−1 BHPF)?
**A.** Its Number of dams is 12.

**Q.** And the “Number of live pups per litter” value (CD-1 mice; 2 mg kg^−1 3-d^−1 BHPF)?
**A.** Its value is 11.67±2.06.

**Q.** And the non-pregnant females (CD-1 mice; 2 mg kg^−1 bw 3-d^−1 BHPF)?
**A.** Its non-pregnant females is 3.

**Q.** And the “Absorption sites in the uterus of dams” value (CD-1 mice; 10 mg kg^−1 3-d^−1 BHPF)?
**A.** Its value is 0.64±0.67.

**Q.** What about the “Birth weight of pups” value (CD-1 mice; 10 mg kg^−1 3-d^−1 BHPF) of the same molecule?
**A.** The value was 1.54±0.18.

**Q.** What about the “Body weight of female pups at PND 4” value (CD-1 mice; 10 mg kg^−1 3-d^−1 BHPF) of the same molecule?
**A.** The value was 3.05±0.44.

**Q.** And the “Implantation sites in the uterus of dams” value (CD-1 mice; 10 mg kg^−1 3-d^−1 BHPF)?
**A.** The value was 16.09±1.81.

**Q.** And the Number of dams (CD-1 mice; 10 mg kg^−1 3-d^−1 BHPF)?
**A.** Its Number of dams is 11.

**Q.** What about the “Number of live pups per litter” value (CD-1 mice; 10 mg kg^−1 3-d^−1 BHPF) of the same molecule?
**A.** Its value is 12.73±1.85.

**Q.** What about the non-pregnant females (CD-1 mice; 10 mg kg^−1 bw 3-d^−1 BHPF) of the same molecule?
**A.** Its non-pregnant females is 3.

**Q.** And the fetal death (CD-1 mice; 10 mg kg^−1 bw 3-d^−1 BHPF, a pregnant female)?
**A.** Its fetal death is “a dead fetus in late pregnancy was observed in the uterus”.

**Q.** And the “Absorption sites in the uterus of dams” value (CD-1 mice; 50 mg kg^−1 3-d^−1 BHPF)?
**A.** Its value is 1.09±1.38.

**Q.** What about the “Birth weight of pups” value (CD-1 mice; 50 mg kg^−1 3-d^−1 BHPF) of the same molecule?
**A.** Its value is 1.64±0.16.

**Q.** What about the “Body weight of female pups at PND 4” value (CD-1 mice; 50 mg kg^−1 3-d^−1 BHPF) of the same molecule?
**A.** The value was 3.20±0.53.

**Q.** And the “Body weight of male pups at PND 4” value (CD-1 mice; 50 mg kg^−1 3-d^−1 BHPF)?
**A.** Its value is 3.21±0.51.

**Q.** What about the “Implantation sites in the uterus of dams” value (CD-1 mice; 50 mg kg^−1 3-d^−1 BHPF) of the same molecule?
**A.** The value was 14.45±2.42.

**Q.** What about the Number of dams (CD-1 mice; 50 mg kg^−1 3-d^−1 BHPF) of the same molecule?
**A.** Its Number of dams is 11.

**Q.** What about the “Number of live pups per litter” value (CD-1 mice; 50 mg kg^−1 3-d^−1 BHPF) of the same molecule?
**A.** Its value is 10.27±2.53.

**Q.** What about the late abortion (CD-1 mice; 50 mg kg^−1 bw 3-d^−1 BHPF) of the same molecule?
**A.** The late abortion was “one case of late abortion”.

**Q.** What about the maternal death (CD-1 mice; 50 mg kg^−1 bw 3-d^−1 BHPF) of the same molecule?
**A.** The maternal death was “one unexplained maternal death during parturition”.

**Q.** What about the non-pregnant females (CD-1 mice; 50 mg kg^−1 bw 3-d^−1 BHPF) of the same molecule?
**A.** The non-pregnant females was 2.

**Q.** What about the “weight gain before pairing” value (CD-1 mice; BHPF 0.4–50, TAM 1.2 mg kg^−1 bw 3-d^−1) of the same molecule?
**A.** The value was “no significant differences in weight gain”.

**Q.** What about the “doses causing adverse pregnancy outcomes” value (CD-1 mice; CD-1 mice) of the same molecule?
**A.** Its value is no less than 2 mg kg^−1 bw 3-d^−1.

**Q.** What about the “doses inducing atrophic endometria” value (CD-1 mice; CD-1 mice) of the same molecule?
**A.** Its value is no less than 0.4 mg kg^−1 bw 3-d^−1.

**Q.** What about the pregnancy-related weight gain (CD-1 mice; all BHPF-treated groups) of the same molecule?
**A.** Its pregnancy-related weight gain is “significantly decreased”.

**Q.** What about the “analysis of ovary sections” value (CD-1 mice; females at PND 60) of the same molecule?
**A.** The value was “retarded follicular development and reduced the numbers of corpora lutea”.

**Q.** What about the “histopathological examination of uteri” value (CD-1 mice; females at PND 60, 36-day exposure) of the same molecule?
**A.** Its value is “serious atrophic endometria”.

**Q.** And the “weights of the ovaries on both sides” value (CD-1 mice; females at PND 60, BHPF groups, 1.2 mg kg^−1 bw 3-d^−1 TAM)?
**A.** The value was “not affected”.

**Q.** What about the “doses significantly decreasing uterine weights and inducing atrophic endometria” value (CD-1 mice; intact female mice, oral gavage 36 days from PND 24) of the same molecule?
**A.** Its value is no less than 2 mg kg^−1 3-d^−1.

**Q.** What about the sperm quality (CD-1 mice; males PND 84) of the same molecule?
**A.** The sperm quality was “No obvious adverse effects”.

**Q.** What about the “pathological examination of seminal vesicle” value (CD-1 mice; males PND 84, TAM 1.2, BHPF 50 mg kg^−1 bw 3-d^−1 group) of the same molecule?
**A.** The value was “one case of unilateral seminal vesicle atrophy”.

**Q.** And the “histopathological examination of ovaries” value (CD-1 mice; non-pregnant females)?
**A.** Its value is “haemorrhagic ovary cysts occurred”.

**Q.** What about the “doses significantly down-regulating sprr2a and sprr2b in uteri” value (sprr2a and sprr2b) of the same molecule?
**A.** Its value is no less than 9.26 mg kg^−1 bw d^−1.

Reference: PMC5339874, “Fluorene-9-bisphenol is anti-oestrogenic and may cause adverse pregnancy outcomes in mice” (Nature Communications, 2017)
